Assay results as given in paper PMC9923772 (ACS chemical neuroscience, 2020).
Structures can show the parent of a compound that is named as a salt. Where two headings read alike, the source gives them in different places.

What was measured:
human MOR [1] = target: T1, human MOR (Homo sapiens, UniProt P35372); assay: biochemical; conditions: for Emax: read-out: Efficacy (% Stimulation) MOR, Table 5; for Emax / Efficacy (% Stimulation) MOR: relative to DAMGO at 10 μM
human MOR [2] = target: T1, human MOR; assay: biochemical; assay type: binding
human KOR [3] = target: T2, human KOR (Homo sapiens, UniProt P41145); assay: [35S]-GTPγS binding assay, CHO-KOR membranes; assay type: biochemical; conditions: for Efficacy KOR, percent maximal stimulation: Table 3; for Efficacy KOR, percent maximal stimulation / Efficacy (% Stimulation) KOR: relative to U69,593 at 10 μM; for Efficacy KOR, percent maximal stimulation / Efficacy (% Stimulation) KOR / Potency, EC50 KOR: DNS = does not stimulate; for Potency, EC50 KOR: [35S]GTPγS stimulation
human DOR [4] = target: T3, human DOR (Homo sapiens, UniProt P41143); assay: biochemical; conditions: for Efficacy DOR, percent maximal stimulation: Table 3; for Efficacy DOR, percent maximal stimulation / Efficacy (% Stimulation) DOR: relative to DPDPE at 10 μM; for Efficacy DOR, percent maximal stimulation / Potency EC50 DOR / Efficacy (% Stimulation) DOR: DNS = does not stimulate; for Emax: read-out: Efficacy DOR, percent maximal stimulation; for Potency EC50 DOR: [35S]GTPγS stimulation
human KOR [5] = target: T2, human KOR; assay type: binding
human DOR [6] = target: T3, human DOR; assay: biochemical; assay type: binding

Row | SMILES | EC50 (human MOR [1]) [nM] | Ki (human MOR [2]) [nM] | Efficacy KOR, percent maximal stimulation (human KOR [3]) | Ki (human KOR [5]) [nM] | Emax (human DOR [4]) [%] | Emax (human MOR [1]) [%] | Efficacy (% Stimulation) KOR (human KOR [3]; Table 5) | Efficacy (% Stimulation) DOR (human DOR [4]; Table 5) | further results
1 | Cc1cc(O)cc(C)c1C[C@H](N)C(=O)NCc1cccc(CN2CCCCC2)c1.O=C(O)C(F)(F)F [A, (S)-3-(4-Hydroxy-2,6-dimethylphenyl)-1-oxo-1-((3-(piperidin-1-ylmethyl)benzyl)amino)propan-2-aminium Trifluoroacetate] | > 740 | 9.3 ± 1.3 | DNS | – | – | – | – | – | Efficacy DOR, percent maximal stimulation (human DOR [4]): DNS
2 | COc1ccc(CN2CCc3ccccc3C2)cc1CNC(=O)[C@@H](N)Cc1c(C)cc(O)cc1C [F, (S)-1-((5-((3,4-Dihydroisoquinolin-2(1H)-yl)methyl)-2-methoxybenzyl)amino)-3-(4-hydroxy-2,6-dimethylphenyl)-1-oxopropan-2-aminium Trifluoroacetate] | 2.9 ± 0.5 | 0.16 ± 0.05 | – | 28.4 ± 3.1 | 29.8 ± 3.5 | – | – | – | EC50 (human KOR [3]): > 1000 nM; Emax (human KOR [3]; read-out: Efficacy KOR, percent maximal stimulation): > 15%; Ki (human DOR [6]): 3 ± 0.8 nM; EC50 (human DOR [4]): 5 ± 0.9 nM
3 | CCCOc1ccc(CN2CCc3ccccc3C2)cc1CNC(=O)[C@@H](N)Cc1c(C)cc(O)cc1C.O=C(O)C(F)(F)F [G, (S)-1-((5-((3,4-Dihydroisoquinolin-2(1H)-yl)methyl)-2-propoxybenzyl)amino)-3-(4-hydroxy-2,6-dimethylphenyl)-1-oxopropan-2-aminium Trifluoroacetate] | 2.6 ± 1.3 | 0.22 ± 0.04 | DNS | – | – | – | – | – | Ki (human DOR [6]): 1.4 ± 0.3 nM; Potency EC50 DOR (human DOR [4]; Table 2): DNS; Efficacy DOR, percent maximal stimulation (human DOR [4]): DNS
4 | Cc1cc(O)cc(C)c1C[C@H](N)C(=O)NCC(=O)N(C)CCN1CCc2ccccc2C1.O=C(O)C(F)(F)F [O, (S)-1-((2-((2-(3,4-Dihydroisoquinolin-2(1H)-yl)ethyl)(methyl)amino)-2-oxoethyl)amino)-3-(4-hydroxy-2,6-dimethylphenyl)-1-oxopropan-2-aminium Trifluoroacetate] | – | – | – | – | – | 53 ± 17 | DNS | DNS | –
5 | Cc1cc(O)cc(C)c1C[C@H](N)C(=O)NCc1cc(CN2CCc3ccccc3C2)ccc1OCC1CC1.O=C(O)C(F)(F)F [H, (S)-1-((2-(Cyclopropylmethoxy)-5-((3,4-dihydroisoquinolin-2(1H)-yl)methyl)benzyl)amino)-3-(4-hydroxy-2,6-dimethylphenyl)-1-oxopropan-2-aminium Trifluoroacetate] | 1.6 ± 0.5 | 0.05 ± 0.01 | DNS | 23.5 ± 3.6 | – | – | – | – | Potency, EC50 KOR (human KOR [3]; Table 2): DNS; Ki (human DOR [6]): 3.6 ± 0.9 nM; Potency EC50 DOR (human DOR [4]; Table 2): DNS; Efficacy DOR, percent maximal stimulation (human DOR [4]): DNS
6 | Cc1cc(O)cc(C)c1C[C@H](N)C(=O)NCC(=O)NCCN1CCc2ccccc2C1.O=C(O)C(F)(F)F [P, (S)-1-((2-((2-(3,4-Dihydroisoquinolin-2(1H)-yl)ethyl)amino)-2-oxoethyl)amino)-3-(4-hydroxy-2,6-dimethylphenyl)-1-oxopropan-2-aminium Trifluoroacetate] | – | – | – | – | – | 86.6 ± 3.3 | DNS | 36.5±1.2% | –
7 | Cc1cc(O)cc(C)c1C[C@H](N)C(=O)NCCOCCN1CCc2ccccc2C1.O=C(O)C(F)(F)F [J, (S)-1-((2-(2-(3,4-Dihydroisoquinolin-2(1H)-yl)ethoxy)ethyl)amino)-3-(4-hydroxy-2,6-dimethylphenyl)-1-oxopropan-2-aminium Trifluoroacetate] | – | – | – | – | – | 90.7 | 22.0±3.8% | 27.4±8.2% | Efficacy (% Stimulation) MOR (human MOR [1]; Table 5): 90.7±3.6%
8 | Cc1cc(O)cc(C)c1C[C@H](N)C(=O)NCc1cccc(CN2CCc3ccccc3C2)c1.O=C(O)C(F)(F)F [E, (S)-1-((3-((3,4-Dihydroisoquinolin-2(1H)-yl)methyl)benzyl)amino)-3-(4-hydroxy-2,6-dimethylphenyl)-1-oxopropan-2-aminium Trifluoroacetate] | 6.1 ± 3.1 | 0.23 ± 0.02 | DNS | 46.3 ± 9.7 | 57 ± 6 | 126 ± 20 | DNS | 57±6% | Potency, EC50 KOR (human KOR [3]; Table 2): DNS; Potency, EC50 KOR (human KOR [3]; Table 5): DNS
9 | COc1ccc(CN2CCCCC2)cc1CNC(=O)[C@@H](N)Cc1c(C)cc(O)cc1C.O=C(O)C(F)(F)F [B, (S)-3-(4-Hydroxy-2,6-dimethylphenyl)-1-((2-methoxy-5-(piperidin-1-ylmethyl)benzyl)amino)-1-oxopropan-2-aminium Trifluoroacetate] | – | – | DNS | 23.5 ± 7.3 | 37.2 ± 6.2 | – | – | – | Potency, EC50 KOR (human KOR [3]; Table 2): DNS
10 | CCCOc1ccc(CN2CCCCC2)cc1CNC(=O)[C@@H](N)Cc1c(C)cc(O)cc1C.O=C(O)C(F)(F)F [C, (S)-3-(4-Hydroxy-2,6-dimethylphenyl)-1-oxo-1-((5-(piperidin-1-ylmethyl)-2-propoxybenzyl)amino)propan-2-aminium Trifluoroacetate] | – | – | DNS | – | 39.9 ± 6.5 | – | – | – | –
11 | Cc1cc(O)cc(C)c1C[C@H](N)C(=O)N1CCN(CCN2CCc3ccccc3C2)CC1.O=C(O)C(F)(F)F [M, (S)-1-(4-(2-(3,4-Dihydroisoquinolin-2(1H)-yl)ethyl)piperazin-1-yl)-3-(4-hydroxy-2,6-dimethylphenyl)-1-oxopropan-2-aminium Trifluoroacetate] | 56 ± 17 | 3.59 ± 0.4 | – | – | – | 70 ± 16 | DNS | DNS | Ki (human DOR [6]): 16.6 ± 4.9 nM; Potency EC50 DOR (human DOR [4]; Table 5): DNS
12 | Cc1cc(O)cc(C)c1C[C@H](N)C(=O)NCc1cc(CN2CCCCC2)ccc1OCC1CC1.O=C(O)C(F)(F)F [D, (S)-1-((2-(Cyclopropylmethoxy)-5-(piperidin-1-ylmethyl)benzyl)amino)-3-(4-hydroxy-2,6-dimethylphenyl)-1-oxopropan-2-aminium Trifluoroacetate] | – | – | DNS | – | 17.7 ± 4.4 | – | – | – | –
13 | Cc1cc(O)cc(C)c1C[C@H](N)C(=O)NCCN(C)CCN1CCc2ccccc2C1.O=C(O)C(F)(F)F [N, (S)-1-((2-((2-(3,4-Dihydroisoquinolin-2(1H)-yl)ethyl)(methyl)amino)ethyl)amino)-3-(4-hydroxy-2,6-dimethylphenyl)-1-oxopro-pan-2-aminium Trifluoroacetate] | – | – | – | – | – | – | 43.0±2.5% | – | Efficacy (% Stimulation) MOR (human MOR [1]; Table 5): 80.0±9.5%; EC50 (human MOR [1]; read-out: Potency, EC50 MOR, Table 5, [35S]GTPγS stimulation): 24 ± 10 nM; Ki (human KOR [5]; read-out: Binding Affinity, Ki KOR, Table 4, simple core compounds, mean ± SEM): 8.5 ± 1.1 nM; Ki (human MOR [2]; read-out: Binding Affinity, Ki MOR, Table 4, simple core compounds, mean ± SEM): 1.7 ± 0.39 nM; Ki (human DOR [6]; read-out: Binding Affinity, Ki DOR, Table 4, simple core compounds, mean ± SEM): 77 ± 45 nM
14 | Cc1cc(O)cc(C)c1C[C@H](N)C(=O)NCCCCCN1CCc2ccccc2C1.O=C(O)C(F)(F)F [I, (S)-1-((5-(3,4-Dihydroisoquinolin-2(1H)-yl)pentyl)amino)-3-(4-hydroxy-2,6-dimethylphenyl)-1-oxopropan-2-aminium Trifluoroacetate] | 15.4 ± 1.3 | 1.5 ± 0.3 | – | 44.2 ± 5.6 | – | 80.8 ± 4.5 | DNS | DNS | Potency, EC50 KOR (human KOR [3]; Table 5): DNS
15 | Cc1cc(O)cc(C)c1C[C@H](N)C(=O)NCCOCC(=O)N1CCc2ccccc2C1.O=C(O)C(F)(F)F [K, (S)-1-((2-(2-(3,4-Dihydroisoquinolin-2(1H)-yl)-2-oxoethoxy)-ethyl)amino)-3-(4-hydroxy-2,6-dimethylphenyl)-1-oxopropan-2-aminium Trifluoroacetate] | – | – | – | – | – | – | DNS | DNS | –
16 | Cc1cc(O)cc(C)c1C[C@H](N)C(=O)N1CCC(CCN2CCc3ccccc3C2)CC1.O=C(O)C(F)(F)F [L, (S)-1-(4-(2-(3,4-Dihydroisoquinolin-2(1H)-yl)ethyl)piperidin-1-yl)-3-(4-hydroxy-2,6-dimethylphenyl)-1-oxopropan-2-aminium Trifluoroacetate] | 68 ± 19 | 1.64 ± 0.62 | – | 21 ± 5.9 | – | 73 ± 12 | DNS | DNS | Potency, EC50 KOR (human KOR [3]; Table 5): DNS
